# According to patent publication US20240016895A1, “HEPCIDIN MIMETICS FOR TREATMENT OF SICKLE CELL DISEASE” (Protagonist Therapeutics, Inc., priority 2022, published 2024):
# “Also recorded” adds a separate entry of the source. Where a SMILES comes first, the peptide text is derived from it.
# How the values were obtained:
# Type in all cases: in vivo
# Townes SCD mice [1] = test: Complete blood count (hematological parameters) in Townes SCD mice treated for 4 weeks; conditions: for % Retics / Abs Retics / HCT / HGB / MCH / MCHC / MCV / RBC: 4 weeks
# Protocol: (§1) Compound 46, a hepcidin mimetic, was administered subcutaneously at 1.0 mg/kg (group 3, N=9) or 2.5 mg/kg (group 4, N=9) in Townes SCD mice. 36 Townes SCD and 6 129S1/SvlmJ (wild-type), female mice, 5 weeks old upon delivery. A control group of wild-type mice (groups 1, N=6) was treated with vehicle as well as another SCD mice (group 2, N=9). All mice were dosed three times per week (TIW). All mice were maintained on an iron-adjusted diet (TD.140258, 35 ppm iron) throughout the study. Collections and necropsies were performed 24 hours post-last dose of compound or vehicle. After 4 weeks on study, animals from each group were euthanized, EDTA whole blood collected for CBC and serum was collected for hemolysis biomarker analysis. Spleens and livers were weighed at terminus. Liver, spleen, kidney, heart and brain were collected for future analysis. Serum and urine were collected to analyze chemistry markers, such as bilirubin, LDH (lactate dehydrogenase), haptoglobin, urine creatinine, urine total protein and urine urea nitrogen.
# As shown in FIG. 4A and FIG. 4B, reticulocytes were counted both with the automated analyzer as well as manually from a new methylene blue stained blood smear by counting the number of positive stained cells encountered in 500 erythrocytes and calculating the percentage.
# Townes SCD mice [2] = test: Serum RBC hemolysis biomarkers (total bilirubin, LDH) in Townes SCD mice treated for 4 weeks; conditions: for LDH / Total bilirubin: serum, 4 weeks
# Protocol: as §1
# Serum total bilirubin and serum lactate dehydrogenase are hemolysis biomarkers.
# Townes SCD mice [3] = test: Spleen and liver weights and organ to body weight ratios at terminus in Townes SCD mice
# Protocol: as §1, with “Compound 46, a hepcidin mimetic, was administered subcutaneously at 1.0 mg/kg (group 3, N=9) or 2.5 mg/kg (group 4, N=9) in Townes SCD mice.” left out
# [4] = Dose 1 (mg/kg subcutaneously TIW)
# [5] = Dose 2.5 (mg/kg subcutaneously TIW)
compound,measurement,setting,value
"CCCCCCCCCCCCCCCC(=O)N[C@@H](CCC(=O)NCCCC[C@@H]1NC(=O)[C@H]([C@@H](C)CC)NC(=O)[C@@H](NC(=O)[C@@H]2CCCN2C(=O)[C@H](Cc2ccccc2)NC(=O)[C@H](Cc2cnc[nH]2)NC(=O)[C@@H](NC(=O)[C@H](CCC(=O)O)NC(=O)CC(C)C)[C@@H](C)O)CSSC[C@@H](C(=O)N[C@@H](CCCCN)C(N)=O)NC(=O)CNC(=O)[C@H](CCCCN)NC(=O)[C@H](CO)NC(=O)[C@H](CCCNC(=N)N)NC(=O)[C@@H]2CCCN2C(=O)[C@H](CCC(=O)O)NC(=O)[C@H](Cc2ccccc2)NC1=O)C(=O)O [Compound 46, Isovaleric_Acid-ETHFPCI(K(IsoGlu_Palm))FEPRSKGCK-NH2] (HELM PEPTIDE1{[CC(C)CC(=O)[*:2]].E.T.H.F.P.C.I.K.F.E.P.R.S.K.G.C.K.[am]}|PEPTIDE2{[CCCCCCCCCCCCCCCC(=O)[*:2]].[gGlu]}$PEPTIDE1,PEPTIDE2,9:R3-2:R2|PEPTIDE1,PEPTIDE1,7:R3-17:R3$$$V2.0)",RBC count,"Townes SCD mice [1]; 2.5 mg/kg dose, result in words, FIG. 3A",significantly reduced
same,Percent of reticulocytes compared to vehicle control,"Townes SCD mice [1]; 2.5 mg/kg dose, result in words, FIG. 4B",decreased percent of reticulocytes significantly
same,Mean corpuscular hemoglobin concentration (MCHC) compared to vehicle control,"Townes SCD mice [1]; 2.5 mg/kg, result in words, FIG. 6B",significant increase in MCHC
same,% Retics,Townes SCD mice [1]; [4],65.78 ± 12.23%
same,Abs Retics,Townes SCD mice [1]; [4],2612 ± 627.9 K/uL
same,HCT,Townes SCD mice [1]; [4],29.62 ± 3.45 %
same,HGB,Townes SCD mice [1]; [4],5.89 ± 0.93 g/dL
same,MCH,Townes SCD mice [1]; [4],9.89 ± 0.45 pg
same,MCHC,Townes SCD mice [1]; [4],19.82 ± 1.65 g/dL
same,MCV,Townes SCD mice [1]; [4],50.11 ± 3.41 fL
same,RBC,Townes SCD mice [1]; [4],5.94 ± 0.78 M/uL
same,% Retics,Townes SCD mice [1]; [5],50.33 ± 6.73 %
same,Abs Retics,Townes SCD mice [1]; [5],1195 ± 246.5 K/uL
same,HCT,Townes SCD mice [1]; [5],16.27 ± 7.23 %
same,HGB,Townes SCD mice [1]; [5],4.39 ± 0.36 g/dL
same,MCH,Townes SCD mice [1]; [5],9.82 ± 0.63 pg
same,MCHC,Townes SCD mice [1]; [5],23.22 ± 3.10 g/dL
same,MCV,Townes SCD mice [1]; [5],42.56 ± 3.81 fL
same,RBC,Townes SCD mice [1]; [5],4.49 ± 0.55 M/uL
same,Hgb level,"Townes SCD mice [1]; result in words, FIG. 3B",significantly reduced in all three dose groups
same,Hematocrit (HCT),"Townes SCD mice [1]; result in words, FIG. 5A",significant reduction of HCT in a dose dependent manner
same,Mean corpuscular volume (MCV) compared to the vehicle group,"Townes SCD mice [1]; result in words, FIG. 5B",significant reduction of MCV in a dose dependent manner
same,Mean corpuscular hemoglobin (MCH) compared to vehicle control,"Townes SCD mice [1]; result in words, FIG. 6A",significant reduction in MCH
same,White blood cell (WBC) count,"Townes SCD mice [1]; result in words, FIG. 7A",significant WBC and lymphocyte reduction in a dose dependent manner; also recorded: alleviated elevated white blood cell (WBC) and lymphocytes counts
same,Lymphocyte count,"Townes SCD mice [1]; result in words, FIG. 7B",significant WBC and lymphocyte reduction in a dose dependent manner; also recorded: alleviated elevated white blood cell (WBC) and lymphocytes counts
same,Neutrophil count,"Townes SCD mice [1]; result in words, FIG. 8A",significantly decreased neutrophil count in a dose dependent manner; also recorded: alleviated elevated neutrophil and monocyte counts
same,Monocyte count,"Townes SCD mice [1]; result in words, FIG. 8B",alleviated elevated neutrophil and monocyte counts
same,Serum total bilirubin,"Townes SCD mice [2]; result in words, FIG. 9A",significantly reduced both parameters in a dose dependent manner
same,Serum lactate dehydrogenase (LDH),"Townes SCD mice [2]; result in words, FIG. 9B",significantly reduced both parameters in a dose dependent manner
same,LDH,Townes SCD mice [2]; [4],610.6 ± 341.0 U/L
same,Total bilirubin,Townes SCD mice [2]; [4],2.16 ± 0.34 mg/dL
same,LDH,Townes SCD mice [2]; [5],372.3 ± 70.96 U/L
same,Total bilirubin,Townes SCD mice [2]; [5],1.13 ± 0.37 mg/dL
same,Liver Weight,"Townes SCD mice [3]; SCD mice, Dose 1",1.290 g
same,Liver:BW Ratio,"Townes SCD mice [3]; SCD mice, Dose 1",0.0633 g/g
same,Spleen Weight,"Townes SCD mice [3]; SCD mice, Dose 1",1.035 g
same,Spleen:BW Ratio,"Townes SCD mice [3]; SCD mice, Dose 1",0.0508 g/g
same,Liver Weight,"Townes SCD mice [3]; SCD mice, Dose 2.5",1.138 g
same,Liver:BW Ratio,"Townes SCD mice [3]; SCD mice, Dose 2.5",0.0573 g/g
same,Spleen Weight,"Townes SCD mice [3]; SCD mice, Dose 2.5",0.725 g
same,Spleen:BW Ratio,"Townes SCD mice [3]; SCD mice, Dose 2.5",0.0365 g/g
same,Liver Weight,"Townes SCD mice [3]; SCD mice, Dose 7.5",0.758 g
same,Liver:BW Ratio,"Townes SCD mice [3]; SCD mice, Dose 7.5",0.0549 g/g
same,Spleen Weight,"Townes SCD mice [3]; SCD mice, Dose 7.5",0.301 g
same,Spleen:BW Ratio,"Townes SCD mice [3]; SCD mice, Dose 7.5",0.0217 g/g
same,Spleen weights compared to vehicle,"Townes SCD mice [3]; SCD mice, result in words, FIG. 1A",significantly and dose-dependently lower
same,Spleen to body weight ratios compared to vehicle,"Townes SCD mice [3]; SCD mice, result in words, FIG. 1B",significantly and dose-dependently lower
same,Liver weight compared to vehicle treated SCD mice,"Townes SCD mice [3]; SCD mice, result in words, FIG. 2A",significantly lower in a dose dependent manner
same,Liver to body weight ratios compared to vehicle treated SCD mice,"Townes SCD mice [3]; SCD mice, result in words, FIG. 2B",significantly lower in a dose dependent manner
same,Spleen size,"Townes SCD mice [3]; Townes SCD mice, figure legend FIG. 1A/1B",reduces spleen size
same,Liver size,"Townes SCD mice [3]; Townes SCD mice, figure legend FIG. 2A/2B",reduces liver size
